Values of other authors as cited in patent US20100292280A1, “ANTI-PYRETIC VASODILATORS” (priority 2007, published 2010).

Legend:
[1] = tested on: forearm and dorsum of the foot skin of healthy subjects and diabetic neuropathic patients
[2] = tested on: healthy adults; conditions: ingestion of 5 mg niacin per Kg body weight
[3] = tested on: skin; conditions: doses of niacin over 50 mg

| SMILES | vasodilatory response compared to the acetylcholine and sodium nitroprusside responses ([1]; control group, foot) | vasodilatory response, comparison between agents ([1]; control group, forearm) | maximal vasodilatory response, comparison between agents ([1]; diabetic patients, forearm and foot level) | time after application at which vasodilation was present ([1]; topical 1% methyl nicotinate) [min] | time of decline of vasodilation to pre-application levels ([1]; topical 1% methyl nicotinate) [min] | time of peak vasodilation ([1]; topical 1% methyl nicotinate) [min] | duration of the decrease of core body temperature [2] | time at which the sharp decrease in body temperature begins, after oral ingestion [2] | time of the peak of continuous temperature reduction, after ingestion [2] | undesired side effect reported by a significant portion of the subjects [2] | decrease of core body temperature ([2]; on average) [°C] | duration of flushing of the skin [3] |
| --- | --- | --- | --- | --- | --- | --- | --- | --- | --- | --- | --- | --- |
| COC(=O)c1cccnc1 [methyl nicotinate] | higher | similar | similar | 5 | 120 | 15 to 30 | – | – | – | – | – | – |
| O=C(O)c1cccnc1 [niacin, nicotinic acid] | – | – | – | – | – | – | about 70 minutes | about 20 minutes | about 50 minutes | sever hypotension | 0.44 | about 60 minutes |
